From patent EP1582519A2, “Heteropolycyclic compounds and their use as metabotropic glutamate receptor antagonists” (NPS PHARMACEUTICALS, INC., priority 1999, dated 2001) come the findings set out here.

The target in this experiment is native receptor, mGluR5d (Rattus norvegicus, UniProt P31424). As to the kind of experiment: Antagonist activity on the native receptor mGluR5d. It counts as cell-based. Here is the method: Primary astrocyte cultures were prepared from 3-5 day old Sprague-Dawley rat pups using a modification of Miller (Miller et al, J. Neuroscience, 15(9): 6103-6109, 1995). In brief, primary cultures were plated on poly-L lysine coated flasks in Dulbecco's modified Eagle's medium (DMEM) containing fetal calf serum (FCS). After 6 days, cell cultures were shaken over night at 280 rpm, then transferred to astrocyte-defined media (ADM) containing growth factors that up-regulate the expression of mGluR5 (Miller et al., 1995). […] For FLIPR analysis, cells were seeded on poly-D lysine coated clear bottom 96-well plates with black sides and analysis of [Ca^2+]i mobilization was performed 3 days following the growth factor up-regulation. Cell cultures in the 96-well plates were loaded with a 4 µM solution of acetoxymethyl ester form of the fluorescent calcium indicator fluo-3 (Molecular Probes, Eugene, Oregon) in 0.01 % pluronic. All assays were performed in a buffer containing 127 mM NaCl, 5 mM KCl, 2 mM MgCl2, 0.7 mM NaH2PO4, 2 mM CaCl2, 0.422 mg/ml NaHCO3, 2.4 mg/ml HEPES, 1.8 mg/ml glucose and 1 mg/ml BSA Fraction IV (pH 7.4). […] After each addition the fluorescence signal was sampled 50 times at 1 second intervals followed by 3 samples at 5 second intervals. Responses were measured as the peak height of the response within the sample period. […]
Chain of native receptor, mGluR5d (P31424 21-1203): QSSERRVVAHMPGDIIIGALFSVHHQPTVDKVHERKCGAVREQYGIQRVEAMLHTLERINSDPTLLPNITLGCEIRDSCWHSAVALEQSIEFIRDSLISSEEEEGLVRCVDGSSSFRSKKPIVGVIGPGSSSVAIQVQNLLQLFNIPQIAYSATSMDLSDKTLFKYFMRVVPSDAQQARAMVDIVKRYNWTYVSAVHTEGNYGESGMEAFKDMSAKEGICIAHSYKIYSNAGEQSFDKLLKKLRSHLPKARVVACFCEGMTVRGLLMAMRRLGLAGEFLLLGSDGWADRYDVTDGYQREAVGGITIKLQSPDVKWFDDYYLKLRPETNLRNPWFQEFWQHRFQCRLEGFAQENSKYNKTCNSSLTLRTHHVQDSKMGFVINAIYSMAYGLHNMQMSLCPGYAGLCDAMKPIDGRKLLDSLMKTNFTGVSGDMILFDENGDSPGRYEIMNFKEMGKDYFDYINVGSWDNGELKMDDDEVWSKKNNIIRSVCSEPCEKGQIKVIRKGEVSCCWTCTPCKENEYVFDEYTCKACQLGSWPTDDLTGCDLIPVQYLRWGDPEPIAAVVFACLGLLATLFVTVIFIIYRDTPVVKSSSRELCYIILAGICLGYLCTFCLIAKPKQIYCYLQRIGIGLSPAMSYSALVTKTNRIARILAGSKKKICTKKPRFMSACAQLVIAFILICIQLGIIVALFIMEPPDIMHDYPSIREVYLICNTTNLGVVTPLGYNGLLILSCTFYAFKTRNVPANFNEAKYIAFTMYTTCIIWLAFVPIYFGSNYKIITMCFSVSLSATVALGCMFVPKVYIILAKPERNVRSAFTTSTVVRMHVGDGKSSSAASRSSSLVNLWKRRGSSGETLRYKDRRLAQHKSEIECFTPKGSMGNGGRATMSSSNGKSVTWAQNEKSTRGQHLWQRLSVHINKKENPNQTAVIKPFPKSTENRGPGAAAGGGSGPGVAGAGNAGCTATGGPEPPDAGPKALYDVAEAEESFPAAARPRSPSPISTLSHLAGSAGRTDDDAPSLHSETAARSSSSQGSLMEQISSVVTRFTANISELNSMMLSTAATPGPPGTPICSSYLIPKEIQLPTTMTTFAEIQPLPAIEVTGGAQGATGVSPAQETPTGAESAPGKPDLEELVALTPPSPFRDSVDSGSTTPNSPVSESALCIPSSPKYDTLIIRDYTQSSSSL

Each structure is given as a SMILES string.

As usually defined, the IC50 is the concentration needed to halve the response being measured. Read a high IC50 as weaker potency in that assay. As to `N#Cc1cccc(-c2nc(-c3ccccn3)no2)c1` [B21, 3-(2-pyridyl)-5-(3-cyanophenyl)-1,2,4-oxadiazole], the IC50 came to 0.121 µM.

In the case of `N#Cc1cccc(-c2nc(-c3ccccn3)co2)c1` [B52, 2-[3-cyanophenyl]-4-[pyridin-2-yl]-1,3-oxazole], inhibition was half-maximal at 0.074 µM (IC50).
